Experimental data taken from patent US4801616A, “Diphenylmethanone compounds and anti-inflammatory use thereof” (Eli Lilly and Company, priority 1986, dated 1989).

Target: T1, fatty acid cyclooxygenase (Homo sapiens, UniProt P23219)
T1 construct: The solubilized fatty acid cyclooxygenase was applied to a 440 ml electrofocusing column; from tissue; host or cells: human platelets: microsomes solubilized with Triton X-100, purified by electrofocusing and G-200 Sephadex
Assay: Fatty Acid Cyclooxygenase (FCO) Assay, inhibition of PGE2 formation by purified human platelet enzyme
Assay type: biochemical
Conditions: for IC50: human platelet microsomal enzyme, pH 8.0, 37° C.; for inhibition at 30 µg/mL: percent inhibition at 30 μg/ml
Description: Fatty Acid Cyclooxygenase (FCO) Assay
Microsomes were prepared from 185 bags of human platelets (each bag containing the platelets from one pint of blood prepared using differential centrifugation procedures). The platelets from approximately 60 bags were prepared at one time. Platelet-rich plasma (500 g) was centrifuged at 10,000×g for 20 minutes, and the platelet pellet was suspended in 100 ml of 0.1M potassium phosphate buffer, pH 8.0, with a Teflon glass homogenizer and sonicated for 5.0 minutes with a Bronson Sonifier (Model 350) in a rosette flask cooled in ice water. Disrupted platelets were centrifuged 15 minutes at 10,000× g. The supernatant was centrifuged at 100,000× g for 90 minutes and the microsomal pellets were homogenized in 25 ml of 20% sucrose containing 1.0% Triton X-100 detergent. After 30 minutes at 4° C., the solubilized microsomes were centrifuged at 100,000× g for 60 minutes. The yellow supernatant was removed and stored at -70 ° C.
The solubilized fatty acid cyclooxygenase was applied to a 440 ml electrofocusing column (LKB-8012) containing 1% phisolytes (Brinkman Instruments, Westburgh, NY), pH 2-11, with the cathode at the top of the column. The enzyme was layered onto the column at the appropriate time so that its sucrose concentration was equal to that of the column gradient. This was accomplished by checking the gradient concentration periodically with a sucrose hand refractometer. Electrofocusing was carried out for 16 hours with an initial voltage of 400 V and a final voltage of 900-1,000 volts. Fractions were collected (20 ml) and assayed for PGE2 formation. Active peak fractions were pooled and concentrated by ultrafiltration (XM 100A) to a volume of 3-5 ml.
Active fractions from electrofocusing were applied to a G-200 Sephadex column (2 cm×46 cm) and eluted with 10 mM potassium phosphate buffer, pH 7.0, in 5 ml fractions. After assay, active fractions were poored and concentrated to 1.0 ml by ultrafiltration (XM 100A), and kept frozen at -70° C.
Enzyme activity was determined by assaying for PGE2 formation by preincubating the enzyme with 10 mmol/l imidazole phosphate buffer, pH 8.0, 2 mmol/l epinephrine, 2 mmol/l methemoglobin, and the test compound (30 μg/ml) in a total volume of 0.2 ml for one minute at 37° C. After preincubation, 5 mmol/l ^14 C-arachidonic acid were added and the mixture was incubated an additional 0.5 minutes at 37° C. The enzyme reaction was stopped by the addition of 2 μl of indomethacin (2 mg/ml) in alcohol.
The reaction mixture was spotted (50 μl) on a silica gel (LQ6D) plate and subjected to TLC. The solvent system consisted of chloroform-methanol-glacial acetic acid (90:5:5, v/v/v) and the relative mobilities were PGF2α =0.235, and PGE2 =0.47. The silica gel on the plate was scraped in 1 cm sections, suspended in 5 ml of the scintillation fluid [5.88 g of 2,5-diphenyloxazole and 118 mg of 1,4 -bis(5-phenyloxazol-2-yl)benzene] dissolved in 650 ml of toluene and 350 ml of Triton X-100) and the radioactivity was determined in an Isocap/300 liquid scintillation counter (Searle Analytic, Inc., Southfield, Mich.). Another 50 μl of the mixture was added to 10 ml of the Triton X-100 based scintillation fluid, and the radioactivity was determined so that the amount of radioactivity recovery from the TLC plate could be ascertained. PGE2 formation for each test compound was determined as a percent of control experiments wherein no test compound was added. Data is expressed in Table I either as the percent inhibition of formation of PGE2 at a test compound concentration of 30 μ g/ml, or as an IC50 for inhibition of PGE2 formation.

T1 sequence (P23219 24-599): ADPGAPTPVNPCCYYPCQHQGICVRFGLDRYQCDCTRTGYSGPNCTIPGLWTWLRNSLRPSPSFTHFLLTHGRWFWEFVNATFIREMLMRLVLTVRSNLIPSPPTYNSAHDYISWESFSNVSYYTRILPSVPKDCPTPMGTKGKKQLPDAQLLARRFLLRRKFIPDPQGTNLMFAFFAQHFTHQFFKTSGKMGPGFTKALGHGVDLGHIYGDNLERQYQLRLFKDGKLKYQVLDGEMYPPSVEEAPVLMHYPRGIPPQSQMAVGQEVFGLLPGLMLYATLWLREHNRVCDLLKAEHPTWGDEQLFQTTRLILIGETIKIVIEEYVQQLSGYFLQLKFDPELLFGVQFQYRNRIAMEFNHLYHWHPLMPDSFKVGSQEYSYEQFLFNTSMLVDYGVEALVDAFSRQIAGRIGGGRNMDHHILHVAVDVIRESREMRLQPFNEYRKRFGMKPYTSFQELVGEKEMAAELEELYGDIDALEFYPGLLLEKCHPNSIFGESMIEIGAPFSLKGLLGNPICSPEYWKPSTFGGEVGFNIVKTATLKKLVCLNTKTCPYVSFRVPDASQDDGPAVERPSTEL

CCCc1c(OCCCCC#N)ccc(C(=O)c2ccccc2O)c1O [Example 11, 5-[3-Hydroxy-4-(2-hydroxybenzoyl)-2-propylphenoxy]pentanenitrile]
IC50: 84.9 µM

CCCc1c(OCCCCC(=O)O)ccc(C(=O)c2ccccc2O)c1O [Example 30, 5-[3-Hydroxy-4-(2-hydroxybenzoyl)-2-propylphenoxy]pentanoic acid]
IC50: 121 µM

CCCc1c(OCCCCc2nnn[nH]2)ccc(C(=O)c2ccccc2O)c1O [Example 26, (2-Hydroxyphenyl)(2-hydroxy-3-propyl-4[4-(1H-tetrazol-5-yl)butoxy]phenyl)methanone]
inhibition at 30 µg/mL: 44%

CCCc1c(OCCCCCCCCc2nnn[nH]2)ccc(C(=O)c2ccccc2O)c1O [Example 28, (2-Hydroxyphenyl)[2-hydroxy-3-propyl-4-([8-(1H-tetrazol-5-yl)octyl]oxy)phenyl]methanone]
IC50: 12.2 µM

CCCc1c(O)ccc(C(=O)c2ccccc2O)c1O [Example 4, (2,4-Dihydroxy-3-propylphenyl)(2hydroxyphenyl)methanone]
IC50: 1.1 µM

CCCc1c(OCCCCc2nnn[nH]2)ccc(C(=O)c2ccccc2OC)c1O [Example 23, (2-Hydroxy-3-propyl-4-[4-(1H-tetrazol-5-yl)butoxy]phenyl)(2-methoxyphenyl)methanone]
inhibition at 30 µg/mL: 17%

CCCc1c(OCCCCCCc2nnn[nH]2)ccc(C(=O)c2ccccc2O)c1O [Example 25, (2-Hydroxyphenyl)[2-hydroxy-3-propyl-4-([6-(1H-tetrazol-5-yl)hexyl]oxy)phenyl]methanone]
IC50: 12.7 µM

COc1ccccc1C(=O)c1ccc(OC)c(C)c1O [Example 9, (2-hydroxy-4-methoxy-3-methylphenyl)(2-methoxyphenyl)methanone]
inhibition at 30 µg/mL: 35%
